Patent US20160050932A1, “SYNERGISTIC COMBINATION OF A CHLOROTOLURON COMPOUND AND TERBUTRYN FOR DRY FILM PROTECTION” (Rohm and Haas Company, priority 2013, published 2016)

How the values were obtained:
[1] = tested on: Stichococcus bacillaris SAG 379-1a / CCAP 379/1a; assay: Algal efficacy testing of dry paint films (modified ASTM 5589, 6-well plates); type: cell-based; conditions: 3 weeks; for % inhibition: at the listed total conc, versus blank sample; for Total conc (lowest concentration passing, pass level ≧75% inhibition): total biocide in acrylic/silicone paint, dry film on filter paper
Procedure: (§1) Slurries containing 33% antimicrobial active ingredient (chlorotoluron) and 45% antimicrobial ingredient terbutryn were post added to a white, acrylic/silicone based outdoor paint free of biocides to give a total active ingredient concentration of 10000 and 1000 ppm respectively. These paints were then diluted with an antimicrobial free acrylic/silicone based paint and mixed to prepare targeted concentrations of antimicrobial compounds for the testing. The total biocides concentrations tested were 125, 250, 500, 1000, 2000 and 5000 ppm. After biocides addition or dilution, the paints were mixed 90 seconds with the horse power shaker (AXEL 75M3372/Agitateur SO-10MI) until uniformity was achieved. Paints containing different antimicrobial compounds at the same levels were mixed together in order to obtain the desired ratio of antimicrobial compounds. After one day, the paints were applied to Schleicher & Schuell filter paper at 280 μm wet film thickness and dried for 3 days at room temperature avoiding direct exposure to sunlight. Square discs (1.6 cm×1.6 cm) were cut out from each panel and were used as the substrate for algal efficacy tests. This sample size allowed for an agar border when the sample disc was placed into the well of the test plate.
(§2) Algal efficacy was tested according to modified ASTM 5589 which is a standard accelerated test method for determining resistance of various coatings (including paints) to algal defacement. To accommodate for high-throughput screening, this method was scaled down from petri dishes to 6-well plates. Bold Modified Basal Freshwater Nutrient Solution was used as growth medium. A single coated filter paper coupon was placed with a pair of sterile forceps at the center of the agar plug (on top) with the painted surface facing upwards. Algal inoculums were prepared by mixing equal concentrations (1×10^6 cfu/ml) and equal volumes of exponentially growing algae cultures.
(§3) Each well that contains a tested coupon was inoculated with 1750 μl of algal suspensions (1×10^6 cfu/ml) making sure that the whole surface (paint film as well as the agar surrounding it) was evenly covered. The plates were incubated at room temp (21° C.-25° C.) with cyclic exposure to light and dark phases, for a period of three weeks. The total area inhibited was evaluated at the end of each week according to percent area covered in 5% increments
(§4) At the end of the three week incubation period, the samples were scored for percent inhibition regarding color intensity compared to the blank sample.
(§5) The SI is calculated based on F. C. Kull et.
(§6) SI value of <1 in the formula indicates a synergism of the blended biocides exists.
(§7) The minimal targeted inhibition was set at 75%, meaning a coupon with at least 75% algal growth inhibition was considered as a pass.

[2] = tested on: Chlorella sp. ATCC 7516; assay: as above; type: cell-based; conditions: 3 weeks; for % inhibition: at the listed total conc, versus blank sample; for Total conc (lowest concentration passing, pass level ≧75% inhibition): total biocide in acrylic/silicone paint, dry film on filter paper
Procedure: as §1, §2, §3, §4, §5, §6, §7

Cc1ccc(NC(=O)N(C)C)cc1Cl [Chlorotoluron, N′-(3-chloro-4-methylphenyl)-N,N-dimethylurea] was tested, and the “% inhibition” value [1] was 90%, the “Total conc (lowest concentration passing, pass level ≧75% inhibition)” value [1] was 500 ppm and the “% inhibition” value [2] was 100%. The “Total conc (lowest concentration passing, pass level ≧75% inhibition)” value [2] was 1000 ppm.
In the case of CCNc1nc(NC(C)(C)C)nc(SC)n1 [Terbutryn, N^2-tert-butyl-N^4-ethyl-6-methylthio-1,3,5-triazine-2,4-diamine], the “% inhibition” value [1] is reported as 80%, the “Total conc (lowest concentration passing, pass level ≧75% inhibition)” value [1] is reported as 2000 ppm and the “% inhibition” value [2] is reported as 90%. The “Total conc (lowest concentration passing, pass level ≧75% inhibition)” value [2] was 500 ppm.
